target: T1, Adenosine receptor A1 (Bos taurus, UniProt P28190); experiment: Compound was tested for binding affinity at Adenosine A1 receptor in bovine brain cortical membranes using [3H](R)-(-)-N6-(2-phenylisopropyl)adenosine (R-PIA) as radioligand; format: cell membranes
T1 sequence (P28190 whole entry): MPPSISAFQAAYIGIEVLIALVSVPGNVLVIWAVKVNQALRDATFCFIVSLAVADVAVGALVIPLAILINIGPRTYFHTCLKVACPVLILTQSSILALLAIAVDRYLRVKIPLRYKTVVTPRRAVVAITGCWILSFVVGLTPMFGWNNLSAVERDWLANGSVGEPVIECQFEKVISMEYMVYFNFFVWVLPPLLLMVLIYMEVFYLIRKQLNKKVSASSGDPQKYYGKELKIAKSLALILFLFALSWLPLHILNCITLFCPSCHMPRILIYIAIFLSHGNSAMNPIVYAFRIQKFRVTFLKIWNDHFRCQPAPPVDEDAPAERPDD

Ki	Compound
> 10000 nM	O=[N+]([O-])c1ccc(CNc2ncnc3c2nnn3Cc2ccccc2Cl)cc1
468 nM	CC(Nc1ncnc2c1nnn2Cc1ccccc1Cl)c1ccccc1 (centres undefined)
> 10000 nM	O=[N+]([O-])c1ccc(CCNc2ncnc3c2nnn3Cc2ccccc2)cc1
> 10000 nM	O=[N+]([O-])c1ccc(CCNc2ncnc3c2nnn3Cc2ccccc2Cl)cc1
216 nM	c1ccc(CCn2nnc3c(NC4CCCCC4)ncnc32)cc1
> 10000 nM	Nc1ccc(CNc2ncnc3c2nnn3Cc2ccccc2Cl)cc1
2250 nM	O=[N+]([O-])c1cccc(Nc2ncnc3c2nnn3CCc2ccccc2)c1
245 nM	O=[N+]([O-])c1ccc(CNc2ncnc3c2nnn3CCc2ccccc2)cc1
> 10000 nM	Clc1ccccc1Cn1nnc2c(NNc3ccccc3)ncnc21
2790 nM	c1ccc(Cn2nnc3c(NCC4CCCCC4)ncnc32)cc1
176 nM	c1ccc(CCn2nnc3c(NC4CCCC4)ncnc32)cc1
121 nM	c1ccc(Cn2nnc3c(NC4CCCCC4)ncnc32)cc1
4260 nM	Clc1ccccc1Cn1nnc2c(NCC3CCCCC3)ncnc21
1540 nM	Nc1ccc(CCNc2ncnc3c2nnn3Cc2ccccc2)cc1
438 nM	CC(Nc1ncnc2c1nnn2Cc1ccccc1)c1ccccc1 (centres undefined)
73 nM	CC(Cc1ccccc1)Nc1ncnc2c1nnn2Cc1ccccc1Cl (centres undefined)
502 nM	Cc1ccc(Nc2ncnc3c2nnn3Cc2ccccc2)cc1
575 nM	CC(Cc1ccccc1)Nc1ncnc2c1nnn2Cc1ccccc1 (centres undefined)

Ki	Compound
443 nM	O=[N+]([O-])c1cccc(Nc2ncnc3c2nnn3Cc2ccccc2)c1
770 nM	CC1CCCC(Nc2ncnc3c2nnn3Cc2ccccc2)C1 (centres undefined)
1830 nM	Clc1cccc(Nc2ncnc3c2nnn3Cc2ccccc2Cl)c1
39 nM	C[C@H](Cc1ccccc1)Nc1ncnc2c1nnn2Cc1ccccc1Cl
1670 nM	Cc1ccc(Nc2ncnc3c2nnn3CCc2ccccc2)cc1
1100 nM	Cc1cccc(Nc2ncnc3c2nnn3Cc2ccccc2)c1
5880 nM	Cc1cccc(Nc2ncnc3c2nnn3Cc2ccccc2Cl)c1
9500 nM	Nc1ccc(CNc2ncnc3c2nnn3Cc2ccccc2)cc1
119 nM	Cc1ccc(Nc2ncnc3c2nnn3Cc2ccccc2Cl)cc1
3320 nM	Clc1cccc(Nc2ncnc3c2nnn3CCc2ccccc2)c1
274 nM	C[C@H](Cc1ccccc1)Nc1ncnc2c1nnn2Cc1ccccc1
2200 nM	CC(Nc1ncnc2c1nnn2CCc1ccccc1)c1ccccc1 (centres undefined)
43 nM	Clc1ccccc1Cn1nnc2c(NC3CCCCC3)ncnc21
127 nM	c1ccc(Cn2nnc3c(NC4CCCC4)ncnc32)cc1
> 10000 nM	O=[N+]([O-])c1ccc(CNc2ncnc3c2nnn3Cc2ccccc2)cc1
463 nM	Clc1cccc(Nc2ncnc3c2nnn3Cc2ccccc2)c1
4380 nM	Cc1cccc(Nc2ncnc3c2nnn3CCc2ccccc2)c1
3300 nM	O=[N+]([O-])c1cccc(Nc2ncnc3c2nnn3Cc2ccccc2Cl)c1

Compound	Ki
CC1CCCC(Nc2ncnc3c2nnn3Cc2ccccc2Cl)C1 (centres undefined)	102 nM
CC(Cc1ccccc1)Nc1ncnc2c1nnn2CCc1ccccc1 (centres undefined)	2490 nM
Clc1ccccc1Cn1nnc2c(NC3CCCC3)ncnc21	21 nM

Reference: ChEMBL document CHEMBL1131481, “Novel 3-aralkyl-7-(amino-substituted)-1,2,3-triazolo[4,5-d]pyrimidines with high affinity toward A1 adenosine receptors” (J Med Chem, 1998)
